The results in this text go back to patent publication US9371320B2, “Heterocyclic compound” (TAKEDA PHARMACEUTICAL COMPANY LIMITED, priority 2012, dated 2016).

The target in test [1] is T1, JAK1 (Homo sapiens, UniProt P23458).
T1 construct: purchased Invitrogen
Briefly: JAK1 enzyme inhibition test (LANCE method). Type of test: biochemical. The settings on record: for inhibition at 1 µM: test compound 1 μM, read-out: Inhibitory rate (%) JAK1 1 μM; for inhibition at 10 µM: read-out: Inhibitory rate (%) JAK1 10 μM. As to the method:
JAK1 Enzyme Inhibition Test
(§1) JAK1 enzyme inhibitory activity of test compounds was measured by LANCE method (PerkinElmer). First, a test compound diluted with assay buffer (50 mM HEPES (pH=7.5), 10 mM MgCl2, 1 mM EGTA, 2 mM DTT, 0.01% Tween20, 0.01% BSA) was added to 384-well plate at 2 μL each. Then, a JAK1 (Invitrogen) solution and a fluorescence-labeled peptide substrate (ULight-JAK1, PerkinElmer) solution diluted with assay buffer at 187.5 ng/mL and 300 nM, respectively were added at 2 μL each. Then, enzyme reaction was started by adding 2 μL each of ATP solution prepared with assay buffer at 150 μM. After the reaction at room temperature for 1 hr, Detection Buffer (PerkinElmer) prepared to be 20 mM EDTA, 4 nM europium-labeled anti-phosphotyrosine antibody (PerkinElmer) was added at 6 μL each. After standing at room temperature for 1 hr, fluorescence intensity (excitation wavelength 340 nm, fluorescence wavelength 665 nm, delay time 100 microsecond) was measured by a plate reader, Envision (PerkinElmer). The inhibitory activity of each compound was calculated as relative value where fluorescence intensity of a well without enzyme is considered as 100% inhibition.
Background: Time-resolved FRET reads energy transfer from a long-lived donor to a nearby acceptor.

The target in test [2] is T2, Tyk2 (Homo sapiens, UniProt P29597).
T2 construct: purchased Invitrogen
Briefly: Tyk2 enzyme inhibition test (LANCE method). Type of test: biochemical. The settings on record: for inhibition at 1 µM: test compound 1 μM, read-out: Inhibitory rate (%) Tyk2 1 μM; for inhibition at 10 µM: test compound 10 μM, read-out: Inhibitory rate (%) Tyk2 10 μM. The protocol: Tyk2 Enzyme Inhibition Test
as §1, with “Tyk2 enzyme” for “JAK1 enzyme”, “a Tyk2” for “a JAK1”, “at 375” for “at 187.5”, “at 30” for “at 150”

[3] abbreviates: test compound 10 μM (Ex. 182-220), beside Tyk2 1 μM.

Like-named read-outs stand apart in the source and are kept apart here.

T2 sequence (P29597 whole entry): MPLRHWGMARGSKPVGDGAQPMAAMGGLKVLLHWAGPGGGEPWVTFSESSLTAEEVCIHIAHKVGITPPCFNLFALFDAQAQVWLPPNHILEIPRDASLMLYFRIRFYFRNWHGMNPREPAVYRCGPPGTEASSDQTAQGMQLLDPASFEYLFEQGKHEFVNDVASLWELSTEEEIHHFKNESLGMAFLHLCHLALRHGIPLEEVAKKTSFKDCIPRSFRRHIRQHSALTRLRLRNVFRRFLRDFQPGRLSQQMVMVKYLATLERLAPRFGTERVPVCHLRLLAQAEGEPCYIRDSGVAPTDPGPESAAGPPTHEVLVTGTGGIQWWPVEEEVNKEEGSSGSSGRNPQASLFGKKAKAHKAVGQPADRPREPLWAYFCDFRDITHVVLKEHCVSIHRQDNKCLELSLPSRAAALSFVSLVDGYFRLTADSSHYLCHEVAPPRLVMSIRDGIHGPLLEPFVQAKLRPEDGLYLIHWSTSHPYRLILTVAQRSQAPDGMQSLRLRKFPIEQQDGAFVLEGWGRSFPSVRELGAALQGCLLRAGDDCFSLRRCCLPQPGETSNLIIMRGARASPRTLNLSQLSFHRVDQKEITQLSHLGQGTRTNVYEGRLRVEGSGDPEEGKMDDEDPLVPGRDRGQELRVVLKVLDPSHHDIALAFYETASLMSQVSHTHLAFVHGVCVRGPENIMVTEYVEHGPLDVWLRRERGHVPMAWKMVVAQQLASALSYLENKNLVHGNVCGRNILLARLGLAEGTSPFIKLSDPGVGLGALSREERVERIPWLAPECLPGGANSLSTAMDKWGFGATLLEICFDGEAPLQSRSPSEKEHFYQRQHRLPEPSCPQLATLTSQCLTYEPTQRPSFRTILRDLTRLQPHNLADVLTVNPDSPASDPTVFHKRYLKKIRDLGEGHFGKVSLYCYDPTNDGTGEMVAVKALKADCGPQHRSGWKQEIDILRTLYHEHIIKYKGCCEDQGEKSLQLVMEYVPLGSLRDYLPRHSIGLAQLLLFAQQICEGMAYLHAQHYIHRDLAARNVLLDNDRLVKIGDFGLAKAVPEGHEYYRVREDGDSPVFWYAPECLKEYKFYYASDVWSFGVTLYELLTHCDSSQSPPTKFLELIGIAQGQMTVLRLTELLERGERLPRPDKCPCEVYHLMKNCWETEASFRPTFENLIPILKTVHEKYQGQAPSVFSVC
T1 sequence (P23458 whole entry): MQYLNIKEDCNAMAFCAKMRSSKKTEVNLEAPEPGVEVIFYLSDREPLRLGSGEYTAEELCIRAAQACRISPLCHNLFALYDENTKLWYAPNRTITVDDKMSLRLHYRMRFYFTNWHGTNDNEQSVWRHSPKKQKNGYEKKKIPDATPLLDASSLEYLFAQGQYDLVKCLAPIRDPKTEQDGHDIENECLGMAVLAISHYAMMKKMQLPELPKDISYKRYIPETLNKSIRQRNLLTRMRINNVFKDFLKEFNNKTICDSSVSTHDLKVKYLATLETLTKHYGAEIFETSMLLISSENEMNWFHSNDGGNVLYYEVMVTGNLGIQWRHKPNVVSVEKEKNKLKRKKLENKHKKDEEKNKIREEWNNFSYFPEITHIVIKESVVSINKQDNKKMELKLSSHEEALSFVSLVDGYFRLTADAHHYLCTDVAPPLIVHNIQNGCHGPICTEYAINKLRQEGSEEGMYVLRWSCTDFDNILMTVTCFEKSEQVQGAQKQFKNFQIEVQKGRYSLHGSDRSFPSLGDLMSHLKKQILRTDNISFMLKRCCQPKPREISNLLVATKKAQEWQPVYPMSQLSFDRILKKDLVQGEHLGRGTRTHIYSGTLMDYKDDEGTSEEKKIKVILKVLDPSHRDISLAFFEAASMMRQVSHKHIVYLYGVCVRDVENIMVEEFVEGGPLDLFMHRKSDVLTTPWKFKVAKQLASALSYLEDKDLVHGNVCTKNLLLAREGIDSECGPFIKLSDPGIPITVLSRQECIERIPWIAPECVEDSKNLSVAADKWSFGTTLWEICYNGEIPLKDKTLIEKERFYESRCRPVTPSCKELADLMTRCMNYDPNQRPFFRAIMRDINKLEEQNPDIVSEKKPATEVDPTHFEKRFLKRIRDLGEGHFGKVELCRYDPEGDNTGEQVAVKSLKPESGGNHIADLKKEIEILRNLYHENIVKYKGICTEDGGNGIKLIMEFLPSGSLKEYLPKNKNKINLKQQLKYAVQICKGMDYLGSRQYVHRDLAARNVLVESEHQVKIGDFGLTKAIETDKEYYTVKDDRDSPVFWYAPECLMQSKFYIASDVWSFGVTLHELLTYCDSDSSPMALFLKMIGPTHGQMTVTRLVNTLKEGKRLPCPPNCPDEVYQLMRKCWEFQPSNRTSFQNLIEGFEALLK

For `NC(=O)c1cc(-c2cn(C3CCCC3)c3cc[nH]c(=O)c23)cs1` [Example 4, 4-(1-cyclopentyl-4-oxo-4,5-dihydro-1H-pyrrolo[3,2-c]pyridin-3-yl)thiophene-2-carboxamide], the inhibition at 1 µM in test [1] and in test [2] was 99% throughout.
As to `O=c1[nH]ccc2c1c(-c1ccc(OC(F)(F)F)cc1)nn2C1CCCC1` [Example 45, 1-cyclopentyl-3-(4-(trifluoromethoxy)phenyl)-1,5-dihydro-4H-pyrazolo[4,3-c]pyridin-4-one], the inhibition at 1 µM came to 90% in test [1] and 74% in test [2].
Consider `O=c1[nH]cc(Cl)c2c1c(-c1csc(CN3CCOCC3)c1)nn2-c1c(F)cccc1F` [Example 203, 7-chloro-1-(2,6-difluorophenyl)-3-(5-(morpholin-4-ylmethyl)-3-thienyl)-1,5-dihydro-4H-pyrazolo[4,3-c]pyridin-4-one], for which the inhibition at 10 µM in test [1] (setting [3]) was determined as 81%. Besides, the inhibition at 1 µM in test [2] worked out at 100%.
Take `COCC(=O)N1CCN(c2ccc(-c3nn(-c4c(F)cccc4F)c4cc[nH]c(=O)c34)cc2)CC1` [Example 313, 1-(2,6-difluorophenyl)-3-(4-(4-(methoxyacetyl)piperazin-1-yl)phenyl)-1,5-dihydro-4H-pyrazolo[4,3-c]pyridin-4-one]: the inhibition at 1 µM in test [1] came to 95%; in test [2], 100%.
With `Nc1ncc(-c2nn(-c3c(F)cccc3F)c3cc[nH]c(=O)c23)cn1` [Example 300, 3-(2-aminopyrimidin-5-yl)-1-(2,6-difluorophenyl)-1,5-dihydro-4H-pyrazolo[4,3-c]pyridin-4-one], the inhibition at 1 µM in test [1] is 68%; in test [2] it was 83%.
As to `CNC(=O)c1ccc(-c2nn(-c3c(F)cccc3F)c3cc[nH]c(=O)c23)c(Cl)c1` [Example 295, 3-chloro-4-(1-(2,6-difluorophenyl)-4-oxo-4,5-dihydro-1H-pyrazolo[4,3-c]pyridin-3-yl)-N-methylbenzamide], the results for the inhibition at 10 µM in test [1] (test compound 10 μM) and in test [2] were 24% and 80%, respectively.
Regarding `NC(=O)c1cc(-n2nc(C3CCCC3)c3c(Br)c[nH]c(=O)c32)cs1` [Example 67, 4-(4-bromo-3-cyclopentyl-7-oxo-6,7-dihydro-1H-pyrazolo[3,4-c]pyridin-1-yl)thiophene-2-carboxamide], the inhibition at 1 µM stood at 55% in test [1] and 91% in test [2].
As to `CCC(COC)n1cc(-c2ccc(C#N)cc2)c2c(=O)[nH]ccc21` (stereo not shown) [Example 24, 4-(1-(1-methoxybutan-2-yl)-4-oxo-4,5-dihydro-1H-pyrrolo[3,2-c]pyridin-3-yl)benzonitrile], the inhibition at 1 µM in test [1] turned out to be 35%; in test [2], 33%.
In the case of `CC(=O)Nc1ccc(-c2nn(-c3c(F)cccc3F)c3cc[nH]c(=O)c23)cc1` [Example 277, N-(4-(1-(2,6-difluorophenyl)-4-oxo-4,5-dihydro-1H-pyrazolo[4,3-c]pyridin-3-yl)phenyl)acetamide], the inhibition at 1 µM in test [1] is 95%; in test [2], 99%.
The corresponding values for `CCC(COC)n1cc(-c2ccc(CC#N)cc2)c2c(=O)[nH]ccc21` (stereo not shown) [Example 20, (4-(1-(1-methoxybutan-2-yl)-4-oxo-4,5-dihydro-1H-pyrrolo[3,2-c]pyridin-3-yl)phenyl)acetonitrile] are 59% and 35%.
In the case of `O=c1[nH]cc(Cl)c2c1c(C1CC1)nn2-c1c(F)cccc1F` [Example 208, 7-chloro-3-cyclopropyl-1-(2,6-difluorophenyl)-1,5-dihydro-4H-pyrazolo[4,3-c]pyridin-4-one], the inhibition at 10 µM was 28% in test [1] (test compound 10 μM) and 83% in test [2].
For `NC(=O)c1cc(-c2nn([C@H]3CC[C@H](O)CC3)c3cc[nH]c(=O)c23)cs1` [Example 183, 4-(1-(trans-4-hydroxycyclohexyl)-4-oxo-4,5-dihydro-1H-pyrazolo[4,3-c]pyridin-3-yl)thiophene-2-carboxamide], the inhibition at 10 µM in test [1] (setting [3]) was determined as 100%. The inhibition at 1 µM in test [2] came to 100%.
In the case of `N#Cc1c[nH]c(=O)c2c(-c3ccc(C(N)=O)cc3)cn(C3CCCC3)c12` [Example 81, 4-(7-cyano-1-cyclopentyl-4-oxo-4,5-dihydro-1H-pyrrolo[3,2-c]pyridin-3-yl)benzamide], the inhibition at 1 µM worked out at 62% in test [1] and 97% in test [2].
As to `NS(=O)(=O)c1ccc(Cn2nc(-c3ccccc3)c3cc[nH]c(=O)c32)cc1` [Example 19, 4-((7-oxo-3-phenyl-6,7-dihydro-1H-pyrazolo[3,4-c]pyridin-1-yl)methyl)benzenesulfonamide], the inhibition at 10 µM was found to be 44% in test [1] (test compound 10 μM) and 27% in test [2].
In the case of `CCC(COC)n1cc(-c2ccc(S(N)(=O)=O)cc2)c2c(=O)[nH]ccc21` (stereo not shown) [Example 17, 4-(1-(1-methoxybutan-2-yl)-4-oxo-4,5-dihydro-1H-pyrrolo[3,2-c]pyridin-3-yl)benzenesulfonamide], the inhibition at 1 µM in test [1] came to 87%; in test [2] it was 69%.
Taken in the same sequence, the figures for `N#Cc1c[nH]c(=O)c2c(-c3cccnc3)cn(C3CCCC3)c12` [Example 133, 1-cyclopentyl-4-oxo-3-(pyridin-3-yl)-4,5-dihydro-1H-pyrrolo[3,2-c]pyridine-7-carbonitrile] were 47% and 90%.
As to `N#CCn1cc(-c2cn(C3CCCC3)c3c(C#N)c[nH]c(=O)c23)cn1` [Example 99, 3-(1-(cyanomethyl)-1H-pyrazol-4-yl)-1-cyclopentyl-4-oxo-4,5-dihydro-1H-pyrrolo[3,2-c]pyridine-7-carbonitrile], the inhibition at 1 µM came to 97% in test [1] and 99% in test [2].
The corresponding values for `COC(=O)c1cc(-n2nc(-c3ccccc3C)c3c(Br)c[nH]c(=O)c32)cs1` [Example 78, methyl 4-(4-bromo-3-(2-methylphenyl)-7-oxo-6,7-dihydro-1H-pyrazolo[3,4-c]pyridin-1-yl)thiophene-2-carboxylate] are 23% and 75%.
Taken in the same sequence, the figures for `Cc1ccccc1-c1nn(-c2csc(C(=O)O)c2)c2c(=O)[nH]cc(Br)c12` [Example 79, 4-(4-bromo-3-(2-methylphenyl)-7-oxo-6,7-dihydro-1H-pyrazolo[3,4-c]pyridin-1-yl)thiophene-2-carboxylic acid] were 44% and 93%.
With `N#Cc1cc(-c2nn(-c3c(F)cccc3F)c3c(Cl)c[nH]c(=O)c23)ccc1N1CCOCC1` [Example 200, 5-(7-chloro-1-(2,6-difluorophenyl)-4-oxo-4,5-dihydro-1H-pyrazolo[4,3-c]pyridin-3-yl)-2-(morpholin-4-yl)benzonitrile], in test [1] (setting [3]), the inhibition at 10 µM stood at 22%. Also, in test [2], the inhibition at 1 µM came out at 98%.
As to `CNC(=O)C1CCN(c2ccc(-c3nn(-c4c(F)cccc4F)c4cc[nH]c(=O)c34)cc2)CC1` [Example 310, 1-(4-(1-(2,6-difluorophenyl)-4-oxo-4,5-dihydro-1H-pyrazolo[4,3-c]pyridin-3-yl)phenyl)-N-methylpiperidine-4-carboxamide], the inhibition at 1 µM was determined as 93% in test [1] and 100% in test [2].
As for `O=c1[nH]ccc2c(-c3ccccc3)nn(-c3ccccc3)c12` [Example 10, 1,3-diphenyl-1,6-dihydro-7H-pyrazolo[3,4-c]pyridin-7-one], in test [2], the inhibition at 10 µM worked out at 38%.
Consider `COc1cccc(-c2nn(C3CCCC3)c3cc[nH]c(=O)c23)c1` [Example 47, 1-cyclopentyl-3-(3-methoxyphenyl)-1,5-dihydro-4H-pyrazolo[4,3-c]pyridin-4-one], for which the inhibition at 1 µM in test [1] worked out at 62%; in test [2], 71%.
For `O=c1[nH]ccc2c1c(-c1ccc([N+](=O)[O-])cc1)nn2C1CCCC1` [Example 57, 1-cyclopentyl-3-(4-nitrophenyl)-1,5-dihydro-4H-pyrazolo[4,3-c]pyridin-4-one], the inhibition at 1 µM in test [1] was determined as 88%; in test [2] it was 81%.
As to `O=C1Cc2ccc(-c3nn(-c4c(F)cccc4F)c4c(Cl)c[nH]c(=O)c34)cc2N1` [Example 227, 7-chloro-1-(2,6-difluorophenyl)-3-(2-oxo-2,3-dihydro-1H-indol-6-yl)-1,5-dihydro-4H-pyrazolo[4,3-c]pyridin-4-one], the inhibition at 1 µM came to 54% in test [1] and 97% in test [2].
